{
  "source": "paper PMC8533642",
  "about": "(Journal of medicinal chemistry, 2021)",
  "key": {"[1]": {"tested_on": "hMC5R", "settings": "cited from earlier work"}, "[2]": {"tested_on": "MC5R", "settings": "cited from earlier work"}, "[3]": {"molecular_target": "T1, mMC4R (Mus musculus, UniProt P56450)", "T1 sequence (P56450 whole entry)": "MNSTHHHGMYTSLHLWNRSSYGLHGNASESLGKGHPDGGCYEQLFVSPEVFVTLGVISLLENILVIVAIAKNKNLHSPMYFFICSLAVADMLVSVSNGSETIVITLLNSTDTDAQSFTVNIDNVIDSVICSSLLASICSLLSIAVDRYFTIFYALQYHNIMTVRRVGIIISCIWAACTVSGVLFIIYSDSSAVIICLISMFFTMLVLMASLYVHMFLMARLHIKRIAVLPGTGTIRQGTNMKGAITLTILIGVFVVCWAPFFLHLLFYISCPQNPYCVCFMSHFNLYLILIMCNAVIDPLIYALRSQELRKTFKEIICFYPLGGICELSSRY", "settings": "cited from earlier work"}, "[4]": {"tested_on": "human (h)MC4R", "settings": "cited from earlier work"}, "[5]": {"tested_on": "hMC3R", "settings": "cited from earlier work"}, "[6]": {"tested_on": "hMC1R", "settings": "cited from earlier work"}, "[7]": {"tested_on": "hMC4R", "settings": "read-out: hMC4R IC50; tripeptide SAR study; cited from earlier work"}, "[8]": {"molecular_target": "T1, mMC4R", "settings": "mMC4R versus mMC3R antagonist potency"}, "[9]": {"molecular_target": "T2, mMC3R (Mus musculus, UniProt P33033)", "T2 sequence (P33033 whole entry)": "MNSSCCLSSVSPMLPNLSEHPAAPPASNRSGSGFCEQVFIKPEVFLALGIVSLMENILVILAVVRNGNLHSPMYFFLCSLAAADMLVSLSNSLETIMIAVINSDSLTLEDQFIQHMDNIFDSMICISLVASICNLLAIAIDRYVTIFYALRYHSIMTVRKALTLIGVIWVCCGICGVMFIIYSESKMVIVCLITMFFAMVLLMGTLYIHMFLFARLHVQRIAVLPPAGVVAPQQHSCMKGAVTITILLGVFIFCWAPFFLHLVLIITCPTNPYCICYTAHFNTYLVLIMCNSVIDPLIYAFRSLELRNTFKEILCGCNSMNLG", "settings": "miniAGRP(87–120), β-galactosidase reporter gene assay; cited from earlier work"}, "[10]": {"molecular_target": "T1, mMC4R", "settings": "miniAGRP(87–120), β-galactosidase reporter gene assay; cited from earlier work"}, "[11]": {"experiment": "Solubility in solvents compatible with RP-HPLC"}, "[12]": {"tested_on": "MC1R", "settings": "at 2 μM; cited from earlier work"}, "[13]": {"tested_on": "MC3R", "settings": "at 2 μM; cited from earlier work"}, "[14]": {"tested_on": "MC4R", "settings": "at 2 μM; cited from earlier work"}, "[15]": {"tested_on": "mouse B16-F10 melanoma cells", "settings": "30 and 100 μM, 100 nM α-MSH, 72 h; cited from earlier work"}, "[16]": {"molecular_target": "mMC1R (Mus musculus, UniProt Q01727)", "sequence (Q01727 whole entry)": "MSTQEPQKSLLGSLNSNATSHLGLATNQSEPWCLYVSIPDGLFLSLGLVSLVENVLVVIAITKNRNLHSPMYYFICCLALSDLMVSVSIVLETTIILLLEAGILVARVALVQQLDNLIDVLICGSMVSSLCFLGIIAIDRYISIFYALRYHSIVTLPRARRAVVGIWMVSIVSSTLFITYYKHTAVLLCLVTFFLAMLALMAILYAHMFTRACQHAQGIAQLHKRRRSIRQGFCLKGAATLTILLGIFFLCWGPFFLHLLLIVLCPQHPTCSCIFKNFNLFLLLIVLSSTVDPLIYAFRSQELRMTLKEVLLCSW", "experiment": "AlphaScreen cAMP agonist assay, HEK293 cells stably expressing mMC1R", "format": "cell-based", "settings": "for mMC1R partial agonist percentage of receptor activation relative to NDP-MSH: partial agonists"}, "[17]": {"molecular_target": "T2, mMC3R", "settings": "earlier report; cited from earlier work"}, "[18]": {"molecular_target": "T1, mMC4R", "settings": "earlier report; cited from earlier work"}, "[19]": {"settings": "compared to a control formulation lacking glycinamide; cited from earlier work"}},
  "note": "Read-outs that look alike come from different tables or passages of the source. Square brackets hold non-standard residues; d marks the D form. Peptide text beside a SMILES is read from it. dPhe(4-I) = N[C@H](Cc1ccc(I)cc1)C(=O)O; d2Nal = N[C@H](Cc1ccc2ccccc2c1)C(=O)O",
  "data": [
    {"molecule": "Ac-Nle-c[Asp-Pro-DNal(2’)-Arg-Trp-Lys]-NH2 [PG901]", "values": [
      {"measurement": "hMC5R agonist potency in words", "setting": "[1]", "result": "sub-nanomolar agonist potency"}
    ]},
    {"molecule": "Ac-Oic-DBip-Pip-Trp-NH2", "values": [
      {"measurement": "EC50", "setting": "[2]; read-out: MC5R agonist potency", "result": 1200, "unit": "nM"}
    ]},
    {"molecule": "Ac-His-DPhe-Arg-Trp-NH2 [reference compound]", "values": [
      {"measurement": "mMC4R agonist potency in words", "setting": "[3]", "result": "nanomolar agonist potency"}
    ]},
    {"molecule": "Ac-Ser-Tyr-Ser-Nle-Glu-Oic-DBip-Pip-Trp-Gly-Lys-Pro-Val-NH2 (WGKPV; N-terminal Ac-Ser-Tyr-Ser-Nle-Glu-Oic-DBip-Pip; C-terminal amide; printed: Trp-Gly-Lys-Pro-Val-)", "values": [
      {"measurement": "MC5R agonist potency in words", "setting": "[2]", "result": "sub-nanomolar MC5R agonist"}
    ]},
    {"molecule": "Ac-DNal(2’)-Arg-Nal(2’) [MCL0020]", "values": [
      {"measurement": "binding affinity at hMC4R", "setting": "[4]", "result": 11.63, "unit": "nM"},
      {"measurement": "binding affinity at hMC3R", "setting": "[5]", "result": 1115, "unit": "nM"},
      {"measurement": "concentration up to which radiolabeled NDP-MSH was not displaced at hMC1R", "setting": "[6]", "result": "> 10", "unit": "µM"},
      {"measurement": "IC50", "setting": "[7]", "result": 15.4, "unit": "nM"}
    ]},
    {"molecule": "CC(=O)N[C@H](Cc1ccc2ccccc2c1)C(=O)N[C@@H](CCCNC(=N)N)C(=O)N[C@@H](Cc1c[nH]c2ccccc12)C(=O)N[C@H](CCCCN)C(N)=O", "note": "[Peptide 16, Ac-DNal(2’)-Arg-Trp-DLys-NH2] (Ac-[d2Nal]RW[dK]-NH2)", "values": [
      {"measurement": "selectivity for the mMC4R over the mMC3R (antagonist)", "setting": "[8]", "result": "more than 150 fold"}
    ]},
    {"molecule": "Ac-DNal(2’)-Arg-DNal(2’)", "values": [
      {"measurement": "IC50", "setting": "[7]", "result": 36.5, "unit": "nM"}
    ]},
    {"molecule": "miniAGRP(87–120): truncated agouti-related protein melanocortin receptor antagonist (CVRLHESCLGQQVPCCDPCATCYCRFFNAFCYCR; UniProt O00253 87-120, looked up, fragment)", "values": [
      {"measurement": "mMC3R pA2", "setting": "[9]", "result": "8.1±0.1"},
      {"measurement": "mMC4R pA2", "setting": "[10]", "result": "8.5±0.1"}
    ]},
    {"molecule": "CC(=O)N[C@H](Cc1ccc2ccccc2c1)C(=O)N[C@H](Cc1ccc2ccccc2c1)C(=O)N[C@H](Cc1ccc2ccccc2c1)C(=O)N[C@H](Cc1ccc2ccccc2c1)C(N)=O", "note": "[Ac-DNal(2’)-DNal(2’)-DNal(2’)-DNal(2’)-NH2] (Ac-[d2Nal][d2Nal][d2Nal][d2Nal]-NH2)", "values": [
      {"measurement": "solubility in solvents compatible with RP-HPLC", "setting": "[11]", "result": "insoluble"}
    ]},
    {"molecule": "Ac-Nle-c[Asp-Oic-DBip-Pip-Trp-Lys]-NH2", "values": [
      {"measurement": "EC50", "setting": "[2]; read-out: concentration activating the MC5R", "result": 0.99, "unit": "nM"},
      {"measurement": "MC1R activation", "setting": "[12]", "result": "up to 40%"},
      {"measurement": "MC3R activation", "setting": "[13]", "result": "up to 40%"},
      {"measurement": "MC4R activation", "setting": "[14]", "result": "up to 40%"}
    ]},
    {"molecule": "H-RLWG-NH2", "values": [
      {"measurement": "effect on α-MSH-stimulated melanin production", "setting": "[15]", "result": "inhibited α-MSH-stimulated melanin production"}
    ]},
    {"molecule": "H-RFWG-NH2", "values": [
      {"measurement": "effect on α-MSH-stimulated melanin production", "setting": "[15]", "result": "inhibited α-MSH-stimulated melanin production"}
    ]},
    {"molecule": "CC(=O)N[C@H](Cc1ccc2ccccc2c1)C(=O)N[C@@H](CCCNC(=N)N)C(=O)N[C@H](Cc1ccc(I)cc1)C(=O)N[C@H](Cc1ccc2ccccc2c1)C(N)=O", "note": "[Peptide 20, Ac-DNal(2’)-Arg-DPhe(pI)-DNal(2’)-NH2] (Ac-[d2Nal]R[dPhe(4-I)][d2Nal]-NH2)", "values": [
      {"measurement": "mMC1R agonist activity in words", "setting": "[16]; full agonist = 90% of maximal NDP-MSH signal", "result": "full agonist activity"},
      {"measurement": "mMC4R partial agonist efficacy, % of the maximal NDP-MSH signal, previously reported", "setting": "[3]; earlier report", "result": 37, "unit": "%"},
      {"measurement": "mMC3R pA2, previously reported", "setting": "[17]", "result": 5.6},
      {"measurement": "mMC4R pA2, previously reported", "setting": "[18]", "result": 5.9}
    ]},
    {"molecule": "NCC(N)=O", "note": "[glycinamide]", "values": [
      {"measurement": "effect on α-MSH-stimulated melanin production", "setting": "[15]", "result": "possessed anti-melanogenic activity"},
      {"measurement": "effect on facial skin pigmentation", "setting": "[19]", "result": "decreased melanin index and skin pigmentation"}
    ]},
    {"molecule": "CC(=O)N[C@H](Cc1ccc2ccccc2c1)C(=O)N[C@@H](CCCNC(=N)N)C(=O)N[C@H](Cc1ccc2ccccc2c1)C(=O)N[C@H](CCCCN)C(N)=O", "note": "[Peptide 13, Ac-DNal(2’)-Arg-DNal(2’)-DLys-NH2] (Ac-[d2Nal]R[d2Nal][dK]-NH2)", "values": [
      {"measurement": "mMC1R partial agonist percentage of receptor activation relative to NDP-MSH", "setting": "[16]", "result": 30, "unit": "% NDP"},
      {"measurement": "selectivity for the mMC4R over the mMC3R (antagonist)", "setting": "[8]", "result": "more than 150 fold"}
    ]},
    {"molecule": "CC(=O)N[C@H](Cc1ccc2ccccc2c1)C(=O)N[C@@H](CCCNC(=N)N)C(=O)N[C@H](Cc1ccc2ccccc2c1)C(=O)N[C@@H](CCCNC(=N)N)C(N)=O", "note": "[Peptide 15, Ac-DNal(2’)-Arg-DNal(2’)-Arg-NH2] (Ac-[d2Nal]R[d2Nal]R-NH2)", "values": [
      {"measurement": "mMC1R partial agonist percentage of receptor activation relative to NDP-MSH", "setting": "[16]", "result": 60, "unit": "% NDP"},
      {"measurement": "selectivity for the mMC4R over the mMC3R (antagonist)", "setting": "[8]", "result": "more than 150 fold"}
    ]}
  ]
}
